“And” between values parts separate entries of the source, which are not always exact repeats. Identical values can stand only once. ± gives the expanded uncertainty stated by the source.
Key:
[1] = Molar enthalpy of transition or fusion; settings: Crystal; DSC
[2] = Crystal; DTA

O.O.O=C(O)C(=O)O [ethanedioic acid dihydrate]
Molar enthalpy of transition or fusion [1]: 11.3 kcal/mol and 11.2 kcal/mol | Normal melting temperature [2]: 99.60 ± 0.7 °C and 101.20 ± 0.7 °C

From the NIST ThermoML archive (doi:10.1016/j.tca.2016.10.016)
